Data as given in patent US8716287B2, “Pharmaceutical compounds” (Sentinel Oncology Limited, priority 2010, dated 2014).
pIC50: −log10 of the molar value. “Also recorded” adds a separate entry of the source. Where a name gives a salt, the structure may show the parent alone. Read-outs that look alike come from different tables or passages of the source.

Experiments:
HT29 cells = assay: Sensitisation of HT29 cells to SN38 (Alamar blue cell growth); format: cell-based, human; conditions: HT29 cells
Protocol: Studies were carried out to test the sensitising effect of compounds of the invention on the ability of the DNA damaging compound 7-ethyl-10-hydroxycamptothecin (SN38), an active metabolite of the anti-cancer drug irinotecan, to inhibit cell growth in HT29 cells.
(§1) The following protocol was used:
(a) HT29 cells were seeded in 96-well plates at a concentration of 3000 cells per well and allowed to adhere overnight prior to addition of compound or vehicle control.
(b) SN38 was prepared from a 10 mM DMSO stock to give a final concentration range of 1 μM, 300 nM, 100 nM, 30 nM, 10 nM, 3 nM, 1 nM, and vehicle control.
(c) Test compounds were prepared from 10 mM DMSO stocks to typically give a final concentration range of 3 μM, 1 μM, 0.3 μM. 0.1 μM, 0.03 μM and vehicle control. The final DMSO content was 0.4%.
(d) Test compounds were incubated with the cells for 72 h at 37° C. 5% CO2 in a humidified atmosphere.
(e) Alamar blue 10% (v/v) was then added and incubated for a further 6 h, and fluorescent product detected using the BMG FLUOstar plate reader.
(f) Data were analysed using a 4-parameter logistic equation in GraphPad Prism.
Sensitisation is determined by the enhancement in IC50 of SN38 by the addition of the Chk-1 kinase inhibitor. In the protocol described above, the IC50 for SN-38 is determined the presence of varying doses of the Chk-1 inhibitor. The fold shift represents a decrease in IC50 for SN-38 at a dose of Chk-1 inhibitor that has no effect by itself.

MOLM-13 cells = assay: Inhibition of cell growth in MOLM-13 cells (Alamar blue); format: cell-based; conditions: Homo sapiens, 72 h incubation
Protocol: (§2) Studies were carried out to test the effect of compounds on the inhibition of cell growth in MOLM-13 and MV4-11 cells.
as §1
(§3) (a) Cells were seeded in 96-well plates at cell densities of 2500/well (MOLM-13) and 10,000/well (MV4-11). Cells were then incubated overnight prior to addition of compound or vehicle control.
(§4) (b) Test compounds were prepared from 10 mM DMSO stocks to give a final concentration range of 10 μM, 3 μM, 1 μM, 0.3 μM, 0.1 μM, […], […] and vehicle control. The DMSO content was constant at 0.1%.
(§5) (c) Test compounds were incubated with the cells for 72 h at 37° C. 5% CO2 in a humidified atmosphere.
(§6) (d) Alamar blue 10% (v/v) was then added and incubated for a further 4 h, and fluorescent product detected using the BMG FLUOstar plate reader.
(§7) (e) Media only background values were subtracted and the data analysed using a 4-parameter logistic equation in GraphPad Prism.
(§8) From the results obtained by following the above protocol, the IC50 values against MOLM-13 and MV4-11 cells of the compounds of Examples 20, 21, 22, 25, 33, 35, 37, 38, 44, 48, 49, 50, 51, 53, 54 and 55 were determined.

MV4-11 cells = assay: Inhibition of cell growth in MV4-11 cells (Alamar blue); format: cell-based; conditions: Homo sapiens, 72 h incubation
Protocol: as §2, §1, §3, §4, §5, §6, §7, §8

Chk-1 kinase = Chk-1 kinase (Homo sapiens (Human), UniProt O14757); assay: Chk-1 kinase inhibiting activity (33P-ATP filter assay, CHKtide substrate); format: biochemical
Protocol: The compounds of the invention were tested for activity against Chk-1 kinase using the materials and protocols set out below.
Base Reaction buffer: 20 mM Hepes (pH 7.5), 10 mM MgCl2, 1 mM EGTA, 0.02% Brij35, 0.02 mg/ml BSA, 0.1 mM Na3VO4, 2 mM DTT, 1% DMSO
*Required cofactors are added individually to each kinase reaction
(i) Prepare indicated substrate in freshly prepared Base Reaction Buffer
(ii) Deliver any required cofactors to the substrate solution above
(iii) Deliver indicated kinase into the substrate solution and gently mix
(iv) Deliver compounds in DMSO into the kinase reaction mixture
(v) Deliver ^33P-ATP (specific activity 0.01 μCi/μl final) into the reaction mixture to initiate the reaction.
(vi) Incubate kinase reaction for 120 minutes at room temperature
(vii) Reactions are spotted onto P81 ion exchange paper (Whatman #3698-915)
(viii) Wash filters extensively in 0.1% phosphoric acid.
(ix) Dry filters and measure counts in scintillation counter
Recombinant full length construct, N-terminal GST tagged, purified from insect cells.
No special measures were taken to activate this kinase.
Final concentration in assay=0.5 nM
Peptide sequence: [[…]]
Final concentration in assay=20 μM
No additional cofactors are added to the reaction mixture

[1] = Chk-1 kinase, Table 3, read-out: IC50
[2] = ranges given, read-out: IC50 values against Chk-1 kinase

Sequence of Chk-1 kinase (O14757 whole entry): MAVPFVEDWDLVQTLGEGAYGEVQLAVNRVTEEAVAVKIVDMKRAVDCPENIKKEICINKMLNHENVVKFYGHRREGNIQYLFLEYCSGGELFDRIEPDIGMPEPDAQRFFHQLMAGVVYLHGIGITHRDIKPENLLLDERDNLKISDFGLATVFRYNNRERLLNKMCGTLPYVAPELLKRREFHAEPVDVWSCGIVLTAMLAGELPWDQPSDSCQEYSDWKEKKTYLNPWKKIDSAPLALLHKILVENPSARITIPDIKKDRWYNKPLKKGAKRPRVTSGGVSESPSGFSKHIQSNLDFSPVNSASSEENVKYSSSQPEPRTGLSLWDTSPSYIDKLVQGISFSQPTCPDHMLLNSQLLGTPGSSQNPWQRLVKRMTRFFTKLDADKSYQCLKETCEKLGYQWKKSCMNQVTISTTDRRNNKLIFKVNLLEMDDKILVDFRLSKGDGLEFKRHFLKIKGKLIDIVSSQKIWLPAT

SMILES: COc1cc(CCNCc2ccc(F)cc2)ccc1NC(=O)Nc1cnc(C#N)cn1 [Example 20, 1-(5-Cyano-pyrazin-2-yl)-3-{4-[2-(4-fluoro-benzylamino)-ethyl]-2-methoxy-phenyl}-urea]
- fold shift in the IC50 value of SN38 (HT29 cells; test compound at 3 μM): three; also recorded: greater than ten
- pIC50 (MOLM-13 cells): 6.30
- pIC50 (MV4-11 cells): 6.09
- pIC50 (Chk-1 kinase; [1]): 8.55
- pIC50 (Chk-1 kinase; [2]): > 8.00

SMILES: COc1cc(OCCNCc2ccc(F)cc2)ccc1NC(=O)Nc1cnc(C#N)cn1 [Example 21, 1-(5-Cyano-pyrazin-2-yl)-3-{4-[2-(4-fluorobenzylamino)-ethoxy]-2-methoxy-phenyl}-urea]
- pIC50 (MOLM-13 cells): 5.89
- pIC50 (MV4-11 cells): 5.89
- pIC50 (Chk-1 kinase; [1]): 8.39
- pIC50 (Chk-1 kinase; [2]): > 8.00

SMILES: COc1cc(CNCc2ccccc2)ccc1NC(=O)Nc1cnc(C#N)cn1 [Example 22, 1-[4-(Benzylamino-methyl)-2-methoxy-phenyl]-3-(5-cyano-pyrazin-2-yl)-urea]
- fold shift in the IC50 value of SN38 (HT29 cells; test compound at 3 μM): three; also recorded: greater than ten
- pIC50 (MOLM-13 cells): < 5.52
- pIC50 (MV4-11 cells): < 5.52
- pIC50 (Chk-1 kinase; [1]): 7.00
- pIC50 (Chk-1 kinase; [2]): 7.00 to 8.00

SMILES: N#Cc1cnc(NC(=O)Nc2ccc(CCNCc3ccc(N4CCOCC4)cc3)c(Cl)c2)cn1 [Example 25, 1-{3-Chloro-4-[2-(4-morpholin-4-yl-benzylamino)-ethyl]-phenyl}-3-(5-cyano-pyrazin-2-yl)-urea]
- pIC50 (MOLM-13 cells): 5.75
- pIC50 (MV4-11 cells): 5.77
- pIC50 (Chk-1 kinase; [1]): 7.74
- pIC50 (Chk-1 kinase; [2]): 7.00 to 8.00

SMILES: COc1cc(OCCNCc2ccc(F)cc2F)ccc1NC(=O)Nc1cnc(C#N)cn1 [Example 33, 1-(5-Cyano-pyrazin-2-yl)-3-{4-[2-(2,4-difluoro-benzylamino)-ethoxy]-2-methoxy-phenyl}-urea]
- fold shift in the IC50 value of SN38 (HT29 cells; test compound at 3 μM): three
- pIC50 (MOLM-13 cells): 5.89
- pIC50 (MV4-11 cells): 5.89
- pIC50 (Chk-1 kinase; [1]): 8.52
- pIC50 (Chk-1 kinase; [2]): > 8.00

SMILES: CN1CCN(c2ccc(CNCCc3ccc(NC(=O)Nc4cnc(C#N)cn4)cc3Cl)cc2)CC1 [Example 35, 1-(3-Chloro-4-{2-[4-(4-methyl-piperazin-1-yl)-benzylamino]-ethyl}-phenyl)-3-(5-cyano-pyrazin-2-yl)-urea]
- fold shift in the IC50 value of SN38 (HT29 cells; test compound at 1 μM): two
- pIC50 (MOLM-13 cells): 5.89
- pIC50 (MV4-11 cells): 5.41
- pIC50 (Chk-1 kinase; [1]): 8.85
- pIC50 (Chk-1 kinase; [2]): > 8.00

SMILES: COc1cc(CCNCc2ccc(F)cc2)c(Cl)cc1NC(=O)Nc1cnc(C#N)cn1 [Example 37, 1-{5-Chloro-4-[2-(4-fluoro-benzylamino)-ethyl]-2-methoxy-phenyl}-3-(5-cyano-pyrazin-2-yl)-urea hydrochloride]
- fold shift in the IC50 value of SN38 (HT29 cells; test compound at 1 μM): two
- fold shift in the IC50 value of SN38 (HT29 cells; test compound at 3 μM): greater than ten
- pIC50 (MOLM-13 cells): 6.24
- pIC50 (MV4-11 cells): 6.00
- pIC50 (Chk-1 kinase; [1]): 8.80
- pIC50 (Chk-1 kinase; [2]): > 8.00

SMILES: CN1CCN(c2cccc(CNCCc3ccc(NC(=O)Nc4cnc(C#N)cn4)cc3Cl)c2)CC1 [Example 38, 1-(3-Chloro-4-{2-[3-(4-methyl-piperazin-1-yl)-benzylamino]-ethyl}-phenyl)-3-(5-cyano-pyrazin-2-yl)-urea]
- fold shift in the IC50 value of SN38 (HT29 cells; test compound at 3 μM): three
- pIC50 (MOLM-13 cells): 6.21
- pIC50 (MV4-11 cells): 5.61
- pIC50 (Chk-1 kinase; [1]): 8.04
- pIC50 (Chk-1 kinase; [2]): > 8.00

SMILES: COc1cc(CCN[C@@H](C)c2ccc(F)cc2)ccc1NC(=O)Nc1cnc(C#N)cn1 [Example 44, 1-(5-Cyano-pyrazin-2-yl)-3-(4-{2-[(S)-1-(4-fluoro-phenyl)-ethylamino]-ethyl}-2-methoxy-phenyl)-urea]
- pIC50 (MOLM-13 cells): 6.07
- pIC50 (MV4-11 cells): 6.02
- pIC50 (Chk-1 kinase; [1]): 8.29
- pIC50 (Chk-1 kinase; [2]): > 8.00

SMILES: COc1cccc(CNCCc2cc(OC)c(NC(=O)Nc3cnc(C#N)cn3)cc2Cl)c1 [Example 48, 1-{5-Chloro-2-methoxy-4-[2-(3-methoxy-benzylamino)-ethyl]-phenyl}-3-(5-cyano-pyrazin-2-yl)-urea hydrochloride]
- fold shift in the IC50 value of SN38 (HT29 cells; test compound at 1 μM): two
- fold shift in the IC50 value of SN38 (HT29 cells; test compound at 3 μM): greater than ten
- pIC50 (MOLM-13 cells): 7.00
- pIC50 (MV4-11 cells): 6.72
- pIC50 (Chk-1 kinase; [1]): 9.33
- pIC50 (Chk-1 kinase; [2]): > 8.00

SMILES: COc1ccc(CNCCc2cc(OC)c(NC(=O)Nc3cnc(C#N)cn3)cc2Cl)cc1 [Example 49, 1-{5-Chloro-2-methoxy-4-[2-(4-methoxy-benzylamino)-ethyl]-phenyl}-3-(5-cyano-pyrazin-2-yl)-urea hydrochloride]
- fold shift in the IC50 value of SN38 (HT29 cells; test compound at 1 μM): two
- fold shift in the IC50 value of SN38 (HT29 cells; test compound at 3 μM): greater than ten
- pIC50 (MOLM-13 cells): 7.22
- pIC50 (MV4-11 cells): 6.92
- pIC50 (Chk-1 kinase; [1]): 9.55
- pIC50 (Chk-1 kinase; [2]): > 8.00

SMILES: COc1cc(CCNCc2ccc(N3CCN(C)CC3)cc2)c(Cl)cc1NC(=O)Nc1cnc(C#N)cn1 [Example 50, 1-(5-Chloro-2-methoxy-4-{2-[4-(4-methyl-piperazin-1-yl)-benzylamino]-ethyl}-phenyl)-3-(5-cyano-pyrazin-2-yl)-urea hydrochloride]
- fold shift in the IC50 value of SN38 (HT29 cells; test compound at 1 μM): two
- pIC50 (MOLM-13 cells): 7.15
- pIC50 (MV4-11 cells): 6.51
- pIC50 (Chk-1 kinase; [1]): 9.35
- pIC50 (Chk-1 kinase; [2]): > 8.00

SMILES: COc1cc(CCNCc2ccc(N3CCN(C)CC3)cc2)ccc1NC(=O)Nc1cnc(C#N)cn1 [Example 51, 1-(5-Cyano-pyrazin-2-yl)-3-(2-methoxy-4-{2-[4-(4-methyl-piperazin-1-yl)-benzylamino]-ethyl}-phenyl)-urea]
- pIC50 (MOLM-13 cells): 6.62
- pIC50 (MV4-11 cells): 6.07
- pIC50 (Chk-1 kinase; [1]): 8.48
- pIC50 (Chk-1 kinase; [2]): > 8.00

SMILES: COc1ccc([C@H](C)NCCc2cc(OC)c(NC(=O)Nc3cnc(C#N)cn3)cc2Cl)cc1 [Example 53, 1-(5-Chloro-2-methoxy-4-{2-[(S)-1-(4-methoxy-phenyl)-ethylamino]-ethyl}-phenyl)-3-(5-cyano-pyrazin-2-yl)-urea hydrochloride]
- pIC50 (MOLM-13 cells): 7.52
- pIC50 (MV4-11 cells): 6.54
- pIC50 (Chk-1 kinase; [1]): 9.25
- pIC50 (Chk-1 kinase; [2]): > 8.00

SMILES: COc1cc(CCNCc2ccc3c(c2)OCO3)c(Cl)cc1NC(=O)Nc1cnc(C#N)cn1 [Example 54, 1-(4-{2-[(Benzo[1,3]-dioxol-5-ylmethyl)-amino]-ethyl}-5-chloro-2-methoxy-phenyl)-3-(5-cyano-pyrazin-2-yl)-urea hydrochloride]
- pIC50 (MOLM-13 cells): 7.85
- pIC50 (MV4-11 cells): 7.28
- pIC50 (Chk-1 kinase; [2]): > 8.00

SMILES: COc1ccccc1CNCCc1cc(OC)c(NC(=O)Nc2cnc(C#N)cn2)cc1Cl [Example 55, 1-{5-Chloro-2-methoxy-4-[2-(2-methoxy-benzylamino)-ethyl]-phenyl}-3-(5-cyano-pyrazin-2-yl)-urea hydrochloride]
- pIC50 (MOLM-13 cells): 7.47
- pIC50 (MV4-11 cells): 6.60
- pIC50 (Chk-1 kinase; [1]): 9.32
- pIC50 (Chk-1 kinase; [2]): > 8.00

SMILES: COc1cc(CNCc2ccc(F)cc2)ccc1NC(=O)Nc1cnc(C#N)cn1 [Example 57, 1-(5-Cyano-pyrazin-2-yl)-3-{4-[(4-fluoro-benzylamino)-methyl]-2-methoxy-phenyl}-urea hydrochloride]
- fold shift in the IC50 value of SN38 (HT29 cells; test compound at 1 μM): two
- fold shift in the IC50 value of SN38 (HT29 cells; test compound at 3 μM): greater than ten
- pIC50 (Chk-1 kinase; [1]): 8.05
- pIC50 (Chk-1 kinase; [2]): > 8.00

SMILES: COc1ccc(CNCc2ccc(NC(=O)Nc3cnc(C#N)cn3)c(OC)c2)cc1 [Example 60, 1-(5-Cyano-pyrazin-2-yl)-3-{2-methoxy-4-[(4-methoxy-benzylamino)-methyl]-phenyl}-urea]
- fold shift in the IC50 value of SN38 (HT29 cells; test compound at 3 μM): three; also recorded: greater than ten
- pIC50 (Chk-1 kinase; [1]): 8.80
- pIC50 (Chk-1 kinase; [2]): > 8.00
